This data set is described as follows: Plasma exposure (PK analysis) in the xenograft efficacy study. Type of data set: in vivo. To be noted: mouse, oral, COLO205 xenograft model, 25 mg/kg twice daily, read-out: plasma exposure, steady state AUC. On the procedure:
All animal studies were conducted in accordance with the Institute for Laboratory Animal Research Guide for the Care and Use of Laboratory Animals and the USDA Animal Welfare Act. The same formulation was used for both COL0205 and B9 xenograft studies. The powder of test compound was dissolved in pure N-methyl-2-pyrrolidone (NMP). Diluent consists of PEG400: TPGS:Poloxamer 407:Water (40:5:5:50). Before gavage administration, fresh stock of NMP compound solution (or NMP for vehicle) was thoroughly mixed with the diluents to make a uniform suspension. Dosing volume is 5 μl/g. On the last day of the efficacy study, blood samples were collected at 0, 2, 4, and 8 hrs after last dosing, 2 animals/time point, for PK analysis.

Molecules are shown by their SMILES.

Turning to `CCCS(=O)(=O)Nc1ccc(F)c(C(=O)c2c[nH]c3ncc(-c4ccc(Cl)cc4)cc23)c1F` [vemurafenib], the exposure (AUC) was found to be 200 µg·h/mL.

The values above are taken from patent publication US10421761B2, “Compounds for kinase modulation, and indications therefor” (Plexxikon Inc., priority 2013, dated 2019).
